One assay concerns CYCB1. The experiment in a line: Gene transcription level by quantitative PCR: CYCB1. The class given is in vivo, Arabidopsis thaliana. Particulars: for CYCB1 transcription level versus controls: 3 μM. Here is the method:
Seeds of homozygous lines of Arabidopsis thaliana wild type (WT; Columbia; Col-0) and max2-1 mutant (http://abrc.osu.edu/) were surface-sterilized and germinated on 1/2 Murashige and Skoog (MS) plates supplemented with 1% sucrose and solidified with 0.7% agar. Plates were incubated vertically in the dark at 4° C. for two days to synchronize germination. Three days after germination, seedlings were gently transferred using forceps to 1/2 MS plates containing various concentrations of GR-24 as a mixture of four diastereomers: (±)-GR-24 and (±)-2'-epi-GR-24. The root tip of the transferred seedling was marked on the plates. The plates remained unsealed to prevent accumulation of gases (e.g., ethylene), and were positioned in an upright 45° position, and incubated at 22° C. with a light intensity of […] photons m-2 s-1 provided by white fluorescent tubes and under a photoperiod of 16 hours exposure to light/8 hours in the dark for 6-12 days. GR-24 treatments were conducted at concentrations ranging from 2.7×10^-6 to 13.5×10^-6 M. […] GR-24, ST-357 and ST-362 were initially dissolved in acetone to give a 4.5 mM, 10 μM and 10 μM solutions, respectively, which were then further diluted with double-distilled sterile water (DDW). […] In each of the experiments, non-treated roots were compared to the respective acetone control. Where no difference was observed between the various controls, non-treated roots are shown. Where differences were recorded between non-treated and acetone controls, the comparison was made between GR-24, ST-357 and ST-362-treated and acetone-treated roots. RNA was extracted from seedlings grown and treated as described in Example 1. Quantitative PCR was performed by amplifying fragments of genes of interest (Tables 6 & 7). Arabidopsis 15S ribosomal RNA (GenBank accession no. AT1G04270.1) served as the reference gene for the amount of RNA, and was amplified using specific primers (forward) [NT] and (reverse) [NT]. The experiment was performed in 5-6 biological replicates; each replicate included 8 plants, on which 3 technical repeats were performed. Means and standard error were determined from all biological replicates. Primers were designed using PrimerQuest software (Integrated DNA Technologies). RNA was extracted using Trizol (Invitrogen, Carlsbad, Calif., USA) using the manufacturer's protocol. 1 μg RNA was reverse-transcribed in a total volume of 20 μl using the Superscript First strand cDNA synthesis kit (Invitrogen). PCR was performed in triplicate using an ABI-Prism 7900 instrument (Applied Biosystems, Foster City, Calif.) and SYBR Green I detection (Applied Biosystems) according to the manufacturer's protocol. The expression of each target gene was normalized to the expression of GAPDH RNA and is presented as the ratio of the target gene to GAPDH RNA, expressed as 2-ΔCt, where Ct is the threshold cycle and ΔCt=[NT] GAPDH.

The test system of another assay is MCF-7 mammospheres. The experiment in a line: cells. The class given is cell-based, human. As to conditions: for Mammosphere morphology: 2.5-5 ppm, after 48 hours; for Mammosphere numbers (>100 μM), percentage of vehicle treated control: 5 days; for viability at 5 ppm: Homo sapiens, MCF7, read-out: XTT viability of dissociated mammospheres. Here is the method:
Given the similar effects the other strigolactone analogs had on breast cancer cell line growth compared to GR-24, we anticipated that the strigolactone analogs would also have similar effects on MCF-7 primary mammosphere formation (FIG. 10): MCF-7 cells were seeded in MEBM media into low attachment, 96 well plates in duplicate at 3000 cells per well. The same day the indicated doses of strigolactone analogs were added. After 7 days representative images were taken. […] Like GR-24, the doses required to inhibit mammosphere formation are lower than that required to inhibit proliferation in monolayer cultures (5 fold lower; ST-362 and MEB-55, 3 fold lower; ST-357). To determine if the sensitivity to strigolactone analogs treatments was specific to mammosphere formation or whether it extended to the integrity and survival of mature mammospheres, MCF-7 mammospheres were grown in the absence of strigolactone analogs and after 7 days (or once mammospheres had reached a mean diameter of over […]), strigolactone analogs were added to the growth media (FIG. 10) at the indicated doses. MCF-7 cells were seeded in MEBM media into low attachment, 96 well plates in duplicate at 3000 cells per well and primary mammospheres left to grow for 7 days. At which time the indicated doses of strigolactone analogs were added to the media. FIG. 11A is a representative image of mammospheres treated with 5 ppm concentrations, showing dissociation after 2 days of exposure to strigolactone analogs. […] Following […] treatment, mammospheres were monitored visually after 24 and 48 hours. No changes were observed following 24 hours of strigolactone analogs treatment. […] At 5 ppm concentrations EG-5, EG-9C, ST-357, ST-362 and MEB-55 reduce mammosphere numbers from 86.7+6.8 (vehicle control) to 23+5, 38+6.2, 6+2, 8.3+3.5 and 9.3+1.5%, respectively. At 2.5 ppm concentrations, mammosphere numbers were reduced to 35+6.9 (EG-5), 52+12.3 (EG-9C), 22+8.5 (ST-357), 6+1.7 (ST-362) and 20.7+8.6 (MEB-55). […] XTT viability assays were also carried out on dissociated mammospheres. At concentrations of 5 ppm, EG-5, ST-362 and MEB-55 reduced viability to 3.7+0.5, 25.5+8.8 and 4.6+1.1% respectively.
In general terms: Formazan colour is commonly taken as a measure of viable cells.

The next assay has as its system MCF10A. Particulars: 3 days.
The subject of another assay is BJ fibroblast. The experiment in a line: Cell cycle analysis (propidium iodide, flow cytometry). The class given is cell-based, human. As to conditions: 48 hours. The protocol: (§1) Adherent cells were trypsinyzed, washed twice with PBS and filtered through a […] cell sieve. DNA content was assessed by flow cytometry. Cells were seeded at densities of 1.5×10^5 cells (MDA-MB-231, MDA-MB-436), or 4×10^5 cells (MCF-7 and MCF10A), or 2×10^5 cells (SW480, HT-29), or 5×10^5 cells (HCT116), per well in DMEM with 10% FBS in 6-well plate culture dishes. […] After 48 hours, cells were washed twice with PBS (pH 7.4), centrifuged at 360 g for 10 minutes at 4° C., and fixed in chilled ethanol (70%; v/v in PBS) with gentle vortex mixing. To determine their DNA contents, the cells were stained with 40 μg/ml propidium iodide (hereinafter PI) and analyzed using a FACSCalibur flow cytometer and CellQuest analysis software (Becton Dickinson, San Jose, Calif.). Where phosphoHistone-H3 staining was carried out, cells were incubated with polyclonal antibody against phosphoHistone H3 and then with secondary Goat anti-rabbit IgG-conjugated to FITC prior to PI staining.
(In general: In flow cytometry, cells or beads pass a laser one at a time.)

The subject of a further assay is MDA-MB-231. Described as above. The class given is cell-based, human. Particulars: 48 hours. The protocol:
as §1

Where [1] appears, read: 5 ppm, vehicle control 86.7+6.8.

Procedure for MCF10A: Results are presented as Average±SD of replicate analyses and are either representative of, or inclusive of at least two independent experiments. Statistical analyses were performed using student's t-test (2-tailed, paired) versus vehicle controls and are regarded as being significant when P<0.05(*). Higher powers (p<0.01, p<0.001) are also employed and indicated in each figure legend. IC50 doses for strigolactone analogs were calculated by interpolation of the sigmoidal dose response curves (Graphpad Prism 4.0 software). Briefly, linear regression was performed between relevant y-axis data points and interpolation calculated for x-axis unknowns.
Cells were seeded into a 96 well plates at 1500 cells per well (MCF-10, PC3, DU145, MDA-MB-231, MDA-MB-436, HT-29, SW480), 1000 cells per well (K562) or 4000 cells per well (MCF-7, HCT116) in triplicate in normal growing media (with the exception of K562, a non-adherent leukemic cell line which was seeded in phenol-free DMEM supplemented with 10% charcoal-stripped FBS). The following day media was replaced with phenol-free DMEM supplemented with 10% charcoal stripped FBS and the indicated final concentrations of strigolactone analog or vehicle (acetone) alone. Cells were incubated for 3 days, at which time XTT (2,3,-bis(2-methoxy-4-nitro-5-sulfophenyl)-5-[(phenylamino)-carbonyl]-2H-tetrazolium inner salt) reduction was used to quantify viability according to manufacturer's instruction (ATCC). Cells were incubated with XTT reagent for 2-3 hours at 37° C. in a humidified 5% CO2-95% air atmosphere. Absorbance was recorded by a photometer [sequence]luor Plus, Tecan (Salzburg, Austria) at 450 nm with 750 nm of reference wavelength. Cell survival was estimated from the equation: % cell survival=100×(At−Ac), where At and Ac are the absorbencies (450 nm) of the XTT colorimetric reaction (ATCC) in treated and control cultures respectively minus non-specific absorption measured at 750 nm. Absorbance of medium alone was also deducted from specific readings.
MCF-10A cells were included as an example of a non-tumorigenic line. XTT viability assays were carried out in the presence of the indicated doses of strigolactone analogs following 3 days of treatment. Resulting differences in absorbance readings following strigolactone analogs treatment reflect changes in proliferation and cell survival (FIG. 7A-C): Cells were seeded into 96 well plates in normal growing media. The following day media was replaced with phenol-free DMEM supplemented with 10% charcoal-stripped serum and the indicated doses of strigolactone analog or vehicle (cont.) alone. Viability was assayed after 3 days (XTT, ATCC).

Consider `CC1=CC(O/C=C2/C(=O)c3c(c4cc(-c5cccs5)ccc4n3C)C2C)OC1=O` (stereo not drawn) [ST-357, (2E)-1,4-dimethyl-2-((4-methyl-5-oxo-2,5-dihydrofuran-2-yloxy)methylene)-7-(thiophen-2-yl)-1,2-dihydrocyclopenta[b]indol-3(4H)-one], for which, in the assay with CYCB1 (WT seedlings), the “CYCB1 transcription level versus controls” value is reported as 0.460 ± 0.362. In addition, the Mammosphere morphology result in the assay on MCF-7 mammospheres is “exhibited a looser morphology and appeared to be dissociating”. The “Mammosphere numbers (>100 μM), percentage of vehicle treated control” value with MCF-7 mammospheres (2.5 ppm) was 22+8.5%; in the assay with MCF-7 mammospheres (setting [1]), 6+2%. In addition, the “IC50 at 72 h” value in the assay on MCF10A is listed as more than 15 ppm.
`CC1=CC(O/C=C2/C(=O)c3c(c4cc(-c5scc6c5OCCO6)ccc4n3C)C2C)OC1=O` (stereo not drawn) [ST-362, (2E)-2-[(2,5-dihydro-4-methyl-5-oxofuran-2-yloxy)methylene]-1,2-dihydro-7-(2,3-dihydrothieno[3,4-b][1,4]dioxin-7-yl)-1,4-dimethyl-cyclopenta[b]indole-3-(4H)-one]: in the assay on CYCB1 (WT seedlings), the “CYCB1 transcription level versus controls” value is given as 0.008 ± 0.007. In addition, in the assay with BJ fibroblast (5 ppm), the “Cell Cycle Distribution G1” value turned out to be 83.42%, the “Cell Cycle Distribution G2” value is 12.86%, the “Cell Cycle Distribution S” value worked out at 1.580% and the SubG1/Apoptosis is given as 0.72. Besides, in the assay on MDA-MB-231 (MDA-MB-231, 5 ppm), the “Cell Cycle Distribution G1” value was 42.17%, the “Cell Cycle Distribution G2” value was 37.93%, the “Cell Cycle Distribution S” value is listed as 11.90% and the SubG1/Apoptosis was 4.17. Besides, the Mammosphere morphology result with MCF-7 mammospheres was “exhibited a looser morphology and appeared to be dissociating”. The “Mammosphere numbers (>100 μM), percentage of vehicle treated control” value in the assay on MCF-7 mammospheres (2.5 ppm) is given as 6+1.7%. The “Mammosphere numbers (>100 μM), percentage of vehicle treated control” value with MCF-7 mammospheres (setting [1]) is 8.3+3.5%. In addition, the “IC50 at 72 h” value in the assay with MCF10A was more than 15 ppm.
Consider `CC1=CC(O/C=C2\Cc3c(n(C)c4ccccc34)C2=O)OC1=O` (racemic) [EG-5, (±) (2E)-4-methyl-2-(4-methyl-5-oxo-2,5-dihydrofuran-2-yloxymethylene)-1,4-dihydro-2H-cyclopenta[b]indol-3-one], for which, in the assay on BJ fibroblast (10 ppm), the “Cell Cycle Distribution G1” value amounted to 82.29%, the “Cell Cycle Distribution G2” value is given as 10.50%, the “Cell Cycle Distribution S” value came to 4.480% and the SubG1/Apoptosis turned out to be 0.49. Moreover, in the assay with MDA-MB-231 (MDA-MB-231, 10 ppm), the “Cell Cycle Distribution G1” value was 34.74%, the “Cell Cycle Distribution G2” value is 35.70%, the “Cell Cycle Distribution S” value came out at 14.59% and the SubG1/Apoptosis amounted to 11.32. In addition, the “Mammosphere numbers (>100 μM), percentage of vehicle treated control” value in the assay on MCF-7 mammospheres (2.5 ppm) was 35+6.9%. In the assay with MCF-7 mammospheres (setting [1]), the “Mammosphere numbers (>100 μM), percentage of vehicle treated control” value is 23+5%. In the assay on MCF-7 mammospheres, the viability – broadly, the share of living cells, or the viability signal relative to a control – at 5 ppm came out at 3.7%. Also, in the assay on MCF10A, the “IC50 at 72 h” value is more than 15 ppm.
Consider `CC1=CC(O/C=C2\Cc3c(n(C)c4cc(-c5cccs5)ccc34)C2=O)OC1=O` (racemic) [MEB-55, (±) 2E-4-methyl-2-(4-methyl-5-oxo-2,5-dihydrofuran-2-yloxymethylene)-6-thiophen-2-yl-1,4-dihydro-2H-cyclopenta[b]indol-3-one], for which, in the assay on BJ fibroblast (5 ppm), the “Cell Cycle Distribution G1” value came out at 78.96%, the “Cell Cycle Distribution G2” value came out at 11.54%, the “Cell Cycle Distribution S” value was found to be 5.930% and the SubG1/Apoptosis is 0.57. Moreover, in the assay on MDA-MB-231 (MDA-MB-231, 5 ppm), the “Cell Cycle Distribution G1” value is 49.61%, the “Cell Cycle Distribution G2” value came out at 28.33%, the “Cell Cycle Distribution S” value stood at 14.51% and the SubG1/Apoptosis is 3.88. In the assay with MCF-7 mammospheres, the Mammosphere morphology result is “exhibited a looser morphology and appeared to be dissociating”; the viability at 5 ppm came to 4.6%. Moreover, the “Mammosphere numbers (>100 μM), percentage of vehicle treated control” value in the assay on MCF-7 mammospheres (2.5 ppm) was 20.7 ± 8.6%. In the assay on MCF-7 mammospheres (setting [1]), the “Mammosphere numbers (>100 μM), percentage of vehicle treated control” value is recorded as 9.3+1.5%. Further, the “IC50 at 72 h” value in the assay on MCF10A is recorded as more than 15 ppm.
Take `CC1=C[C@H](O/C=C2/C(=O)O[C@@H]3c4ccccc4C[C@H]23)OC1=O` (relative stereo) [GR-24, (3aR*,8bS*,E)-3-(((R*)-4-methyl-5-oxo-2,5-dihydrofuran-2-yloxy)methylene)-3,3a,4,8b-tetrahydro-2H-indeno[1,2-b]furan-2-one]: the “CYCB1 transcription level versus controls” value in the assay with CYCB1 (WT seedlings) is recorded as 0.008 ± 0.003; in the assay with CYCB1 (max2-1 seedlings), 0.211 ± 0.078. Further, in the assay with CYCB1 (root tips, 2.7 μM), the “CYCB1 transcription relative to controls” value was determined as 0.97±0.47. Further, the “CYCB1 transcription in comparison to controls” value with CYCB1 (root tips, 13.5 μM) was determined as 0.16±0.00. In the assay on MDA-MB-231 (10 ppm), the “Increase in the sub-G1/apoptotic fraction compared to vehicle” value was 4.6 fold.

These data come from US10208007B2, “Use of strigolactones and strigolactone analogs for treating proliferative conditions” (The State of Israel, Ministry of Agriculture & Rural …, priority 2011, dated 2019).
